In ChEMBL document CHEMBL5518162, “Design, synthesis, and biological evaluation of 2-amino-6-methyl-phenol derivatives targeting lipid peroxidation with potent anti-ferroptotic activities” (Eur J Med Chem, 2024):
Each block holds one compound with its values, some of them ahead of it. The source made the active and inactive calls. No cut-off for these calls is given here.

Tests used:
[1] = Antioxidant activity assessed as DPPH radical scavenging activity at 10 uM; assay type: functional
[2] = system: HT-1080; experiment: Anti-ferroptotic activity against RSL3-induced ferroptosis in human HT-1080 cells assessed as inhibition of ferroptosis incubated for 24 hrs by CCK-8 assay; assay type: functional, cell-based; conditions: HT-1080, 24 h
[3] = system: HT-1080; experiment: Anti-ferroptotic activity against RSL3-induced ferroptosis in human HT-1080 cells assessed as reduction in cell death at 100 nM incubated for 24 hrs by CCK-8 assay; assay type: functional, cell-based
[4] = system: HT-1080; experiment: Effect on FTH1 level in RSL3-induced human HT-1080 cells by measuring mRNA level by qRT-PCT analysis; assay type: functional, cell-based
[5] = system: HT-1080; experiment: Effect on ACSL4 level in unstimulated human HT-1080 cells by measuring mRNA level by qRT-PCT analysis; assay type: functional, cell-based
[6] = system: Mus musculus; experiment: (§1) Protection of kidney in ischemia-reperfusion-induced kidney injury C57BL/6Nj mouse model assessed as focal eosinophilic degeneration of renal tubular epithelial cells in the extra medullary zone at 10 mg/kg, ip pretreated for 1 hr followed by bilateral artery clamping for 45 mins and measured after 24 hrs by hematoxylin and eosin staining based analysis; assay type: functional, organism-based; conditions: time 1545.0 min
[7] = system: HT-1080; experiment: Effect on ACSL4 level in RSL3-induced human HT-1080 cells by measuring mRNA level by qRT-PCT analysis; assay type: functional, cell-based
[8] = system: Mus musculus; experiment: (§2) Protection of kidney in ischemia-reperfusion-induced kidney injury C57BL/6Nj mouse model assessed as reduction of serum creatinine level at 10 mg/kg, ip pretreated for 1 hr followed by bilateral artery clamping for 45 mins and measured after 24 hrs; assay type: functional, organism-based
[9] = system: Mus musculus; experiment: as §1, with “necrosis” for “eosinophilic degeneration”, “and nuclear fixation” for “in the extra medullary zone”; assay type: functional, organism-based; conditions: time 1545.0 min
[10] = system: HT-1080; experiment: Effect on FTH1 level in unstimulated human HT-1080 cells by measuring mRNA level by qRT-PCT analysis; assay type: functional, cell-based
[11] = system: HT-1080; experiment: Effect on SLC7A11 level in unstimulated human HT-1080 cells by measuring mRNA level by qRT-PCT analysis; assay type: functional, cell-based
[12] = system: HT-1080; experiment: Suppression of RSL-3 induced lipid ROS generation in human HT-1080 cells assessed as decrease in STY-BODIPY oxidation at 100 nM by C11-BODIPY581/591 staining based confocal microscopy; assay type: functional, cell-based
[13] = system: HT-1080; experiment: Effect on TFRC level in RSL3-induced human HT-1080 cells by measuring mRNA level by qRT-PCT analysis; assay type: functional, cell-based
[14] = system: HT-1080; experiment: Effect on GPX4 level in unstimulated human HT-1080 cells by measuring mRNA level by qRT-PCT analysis; assay type: functional, cell-based
[15] = system: HT-1080; experiment: Anti-ferroptotic activity against ML210-induced ferroptosis in human HT-1080 cells assessed as reduction in cell death at 100 nM incubated for 24 hrs by CCK-8 assay; assay type: functional, cell-based
[16] = system: HT-1080; experiment: Effect on DMT1 level in RSL3-induced human HT-1080 cells by measuring mRNA level by qRT-PCT analysis; assay type: functional, cell-based
[17] = system: HT-1080; experiment: Effect on SLC7A11 level in RSL3-induced human HT-1080 cells by measuring mRNA level by qRT-PCT analysis; assay type: functional, cell-based
[18] = system: HT-1080; experiment: Anti-ferroptotic activity against BSO-induced ferroptosis in human HT-1080 cells assessed as […] at 100 nM incubated for 24 hrs by CCK-8 assay; assay type: functional, cell-based
[19] = system: HepG2; experiment: Anti-ferroptotic activity against RSL3-induced ferroptosis in human HepG2 cells assessed as […] at 100 nM incubated for 24 hrs by CCK-8 assay; assay type: functional, cell-based
[20] = system: Mus musculus; experiment: as §2, with “prevention” for “reduction”, “[…] by measuring 4-HNE” for “serum creatinine level”, “hrs by immunohistochemistry staining based analysis” for “hrs”; assay type: functional, organism-based; conditions: time 1545.0 min
[21] = system: HT-1080; experiment: Effect on DMT1 level in unstimulated human HT-1080 cells by measuring mRNA level by qRT-PCT analysis; assay type: functional, cell-based
[22] = system: HT-1080; experiment: Anti-ferroptotic activity against FIN56-induced ferroptosis in human HT-1080 cells assessed as reduction in cell death at 100 nM incubated for 24 hrs by CCK-8 assay; assay type: functional, cell-based
[23] = system: HT-1080; experiment: Effect on TFRC level in unstimulated human HT-1080 cells by measuring mRNA level by qRT-PCT analysis; assay type: functional, cell-based
[24] = system: Mus musculus; experiment: Protection of kidney in ischemia-reperfusion-induced kidney injury C57BL/6Nj mouse model assessed as reduction of blood urea nitrogen level at 10 mg/kg, ip pretreated for 1 hr followed by bilateral artery clamping for 45 mins and measured after 24 hrs; assay type: functional, organism-based
[25] = system: HT-1080; experiment: Suppression of RSL-3 induced lipid ROS generation in human HT-1080 cells assessed as decrease in STY-BODIPY oxidation at 100 nM by C11-BODIPY581/591 staining based flow cytometry analysis; assay type: functional, cell-based
[26] = system: HT-1080; experiment: Anti-ferroptotic activity against erastin-induced ferroptosis in human HT-1080 cells assessed as reduction in cell death at 100 nM incubated for 24 hrs by CCK-8 assay; assay type: functional, cell-based
[27] = system: HT-1080; experiment: Suppression of RSL3-induced malondialdehyde adducts accumulation in human HT-1080 cells at 100 nM by lipid peroxidation (MDA) assay; assay type: functional, cell-based
[28] = system: HT-1080; experiment: Effect on GPX4 level in RSL3-induced human HT-1080 cells by measuring mRNA level by qRT-PCT analysis; assay type: functional, cell-based
[29] = system: HeLa; experiment: Anti-ferroptotic activity against RSL3-induced ferroptosis in human HeLa cells assessed as […] at 100 nM incubated for 24 hrs by CCK-8 assay; assay type: functional, cell-based
[30] = system: Huh-7; experiment: Anti-ferroptotic activity against RSL3-induced ferroptosis in human Huh-7 cells assessed as […] at 100 nM incubated for 24 hrs by CCK-8 assay; assay type: functional, cell-based
[31] = system: HTR-8/SVneo; experiment: Anti-ferroptotic activity against RSL3-induced ferroptosis in human HTR-8/SVneo cells assessed as […] at 100 nM incubated for 24 hrs by CCK-8 assay; assay type: functional, cell-based
[32] = system: HT-1080; experiment: Anti-ferroptotic activity against erastin-induced ferroptosis in human HT-1080 cells assessed as preservation of cell viability above […] incubated for 24 hrs by CCK-8 assay; assay type: functional, cell-based
[33] = system: HT-1080; experiment: Anti-ferroptotic activity against RSL3-induced ferroptosis in human HT-1080 cells assessed as […] incubated for 24 hrs by CCK-8 assay; assay type: functional, cell-based; conditions: dose 0.1-1 µM
[34] = system: HT-1080; experiment: Anti-ferroptotic activity against erastin-induced ferroptosis in human HT-1080 cells assessed as […] incubated for 24 hrs by CCK-8 assay; assay type: functional, cell-based
[35] = system: HT-1080; experiment: Anti-ferroptotic activity against RSL3-induced ferroptosis in human HT-1080 cells assessed as preservation of cell viability above […] incubated for 24 hrs by CCK-8 assay; assay type: functional, cell-based
[36] = system: HT-1080; experiment: Anti-ferroptotic activity against erastin-induced ferroptosis in human HT-1080 cells assessed as reduction in cell viability at 250 nM incubated for 24 hrs by CCK-8 assay; assay type: functional
[37] = system: HT-1080; experiment: Anti-ferroptotic activity against RSL3-induced ferroptosis in human HT-1080 cells assessed as reduction in cell viability at 250 nM incubated for 24 hrs by CCK-8 assay; assay type: functional

Compound: Nc1cccc(C(=O)O)c1O
Activity [1]: Active | EC50 [2]: > 10000 nM

Compound: Cc1cccc([N+](=O)[O-])c1O
Activity [1]: Active | EC50 [2]: > 10000 nM

Compound: CCCCNc1cccc(C)c1O
Activity [4]: inactive | Activity [1]: Active | Activity [5]: inactive | Activity [7]: inactive | Activity [10]: inactive | Activity [11]: inactive | Activity [12]: Active | Activity [13]: inactive | Activity [14]: inactive | Activity [16]: inactive | Activity [17]: inactive | Activity [21]: inactive | Activity [23]: inactive | Activity [25]: Active | Activity [27]: Active | Activity [28]: inactive | EC50 [2]: 74.7 nM

Compound: Cc1cccc(N)c1O
Activity [1]: Active | Activity [32]: Active | Activity [33]: Dose-Dependent Effect | Activity [34]: Dose-Dependent Effect | EC50 ([34]; HT-1080, 24 h): 132 nM | Activity [35]: Active | Activity [36]: 100% | EC50 [2]: 207 nM | Activity [37]: 100%

Compound: Cc1cccc(N)c1OCc1ccccc1
Activity [1]: Active | EC50 [2]: > 10000 nM

Compound: COc1c(C)cccc1N
Activity [1]: Active | EC50 [2]: > 10000 nM

Compound: CC(=O)c1cccc(N)c1O
Activity [1]: Active | EC50 [2]: > 10000 nM

Compound: CCOC(=O)c1ccc(NC2CCCCC2)c(N)c1
Activity [1]: Active | Activity [12]: Active | Activity [25]: Active | EC50 [2]: 138 nM

Now from value to compound, other results behind:

EC50 [2]: 25.5 nM
Compound: Cc1ccc(CNc2cccc(C)c2O)cc1
Activity [3]: Active | Activity [4]: inactive | Activity [1]: Active | Activity [5]: inactive | Activity [6]: Active | Activity [7]: inactive | Activity [8]: Active | Activity [9]: Active | Activity [10]: inactive | Activity [11]: inactive | Activity [12]: Active | Activity [13]: inactive | Activity [14]: inactive | Activity [15]: Active | Activity [16]: inactive | Activity [17]: inactive | Activity [18]: Active | Activity [19]: Active | Activity [20]: Active | Activity [21]: inactive | Activity [22]: Active | Activity [23]: inactive | Activity [24]: Active | Activity [25]: Active | Activity [26]: Active | Activity [27]: Active | Activity [28]: inactive | Activity [29]: Active | Activity [30]: Active | Activity [31]: Active

EC50 [2]: 78.9 nM
Compound: COc1ccc(CNc2cccc(C)c2O)cc1
Activity [1]: Active

EC50 [2]: 60.4 nM
Compound: CCNc1cccc(C)c1O
Activity [1]: Active

EC50 [2]: 158 nM
Compound: Cc1cccc(NCc2cccc(C#N)c2)c1O
Activity [1]: Active

EC50 [2]: 131 nM
Compound: Cc1cccc(NCc2ccc(Cl)cc2)c1O
Activity [4]: inactive | Activity [1]: Active | Activity [5]: inactive | Activity [7]: inactive | Activity [10]: inactive | Activity [11]: inactive | Activity [12]: Active | Activity [13]: inactive | Activity [14]: inactive | Activity [16]: inactive | Activity [17]: inactive | Activity [21]: inactive | Activity [23]: inactive | Activity [25]: Active | Activity [27]: Active | Activity [28]: inactive

EC50 [2]: 164 nM
Compound: COC(=O)c1ccc(CNc2cccc(C)c2O)cc1
Activity [1]: Active

EC50 [2]: 181 nM
Compound: Cc1cccc(NCc2ccccc2)c1O
Activity [1]: Active

EC50 [2]: 149 nM
Compound: Cc1cccc(NCc2cccc([N+](=O)[O-])c2)c1O
Activity [1]: Active
